Measured values reported in patent US20150157584A1, “INHIBITORS OF HIPPO-YAP SIGNALING PATHWAY” (The Regents of the University of California, priority 2012, published 2015).
Like-named read-outs stand apart in the source and are kept apart here.

What was measured:
[1] = system: M14; assay: transwell cell migration assay, M14; format: cell-based, human; conditions: 1, 2 and 3 μM C108
Description: Cell migration assay was performed using BD Falcon™ Cell culture inserts for 24-well plates with 22.0 μm pores filter, and the filter was pre-coated with […] Fibronectin. […] After 24 h, cells were fixed using 4% paraformaldehyde and stained using 0.05% crystal violet. Cells in upper chamber were carefully removed, and cells migrated through the filter were assessed by photography. For quantification, crystal violet was extracted and the absorbance at 560 nm was measured.

[2] = system: M14 melanoma xenograft; assay: M14 melanoma xenograft in nude mice
Description: (§4) Cells grown to 90% confluence were harvested by trypsinization, washed in phosphate-buffered saline (PBS), and resuspended in PBS supplemented with 50% matrigel (BD Biosciences). Cells in 200 μL per injection site were administered. Nude mice (Nu-foxn1nu, Charles Rivers Laboratories) were injected on both flanks of the dorsolateral sites subcutaneously. C108 was formulated in 10% DMSO and 40% propylene glycol then administered at a dose of 100 mg/kg daily via tail-vein injection. Control mice received vehicle alone. The average tumor diameter (two perpendicular axes of the tumor were measured) was recorded. The data are expressed in tumor volume estimated by ([width]^2×length/2). Paired, two-tailed Student's t-test was performed to access the statistical significance.
In order to investigate the physiological impact of C108 on implanted tumor cell growth, in vivo xenograft models using M14 melanoma and EKVX adenocarcinoma in immune compromised mice were examined. Cancer cells mixed with 50% matrigel were injected subcutaneously, palpable tumors with approximately 5 mm in diameter across all injection sites were observed within 3 weeks. At that point, control group (6 mice) was tail-vein injected with the solvent consist of 10% DMSO and 40% propylene glycol while the treatment group (6 mice) received daily injection of C108 for three additional weeks. During the treatment period, tumor growth was monitored and final tumor weights were measured.

[3] = system: YAP; assay: YAP ubiquitination (YAP immunoprecipitation, ubiquitin Western blot); format: cell-based, human; conditions: SF268 glioblastoma cells
[4] = system: EKVX adenocarcinoma xenograft; assay: EKVX adenocarcinoma xenograft in nude mice; format: in vivo, mouse; conditions: 100 mg/kg daily via tail-vein injection, three weeks
Description: as §4
In order to investigate the physiological impact of C108 on implanted tumor cell growth, in vivo xenograft models using M14 melanoma and EKVX adenocarcinoma in immune compromised mice were examined. Cancer cells mixed with 50% matrigel were injected subcutaneously, palpable tumors with approximately 5 mm in diameter across all injection sites were observed within 3 weeks. […] During the treatment period, tumor growth was monitored and final tumor weights were measured.

[5] = system: SK-Mel-28 melanoma; assay: cell migration assay, SK-Mel-28; format: cell-based, human
Description: (§1) Cell migration assay was performed using BD Falcon™ Cell culture inserts for 24-well plates with 22.0 μm pores filter, and the filter was pre-coated with […] Fibronectin. Cancer cells were serum-starved for 24 h and then seeded into the upper chamber of the insert in serum-free media, and lower chamber was filled with media containing 20% FBS with or without 2 μM C108. After 24 h, cells were fixed using 4% paraformaldehyde and stained using 0.05% crystal violet. Cells in upper chamber were carefully removed, and cells migrated through the filter were assessed by photography. For quantification, crystal violet was extracted and the absorbance at 560 nm was measured.

[6] = system: YAP mRNA; assay: YAP mRNA level by RT-PCR; format: cell-based, human; conditions: BOCs 293 cells; 3 μM; 12 and 24 hr
[7] = system: M14 Melanoma; assay: M14 melanoma cell proliferation (growth curve); format: cell-based, human
[8] = system: YAP; format: cell-based, human
[9] = system: EKVX adenocarcinoma; assay: cell migration assay, EKVX; format: cell-based, human
Description: as §1

[10] = system: M14 cells; assay: wound healing assay; format: cell-based, human; conditions: M14 melanoma; 24 hr scratch assay
Description: Control and […] treated cells were plated on fibronectin ([…]) coated 6 well plates in complete growth media. After overnight culture, wounds were made by manual scraping of the cell monolayer with a pipet tip. The dishes were washed, replenished with media in the presence or absence of […], and photographed under phase contrast microscope. They were then placed in the tissue culture incubator, and the matched wound regions were photographed every 6 hrs. Migration rate is quantified by traveling distance of leading cellular edge normalized to initial gap distance.

[11] = system: YAP; assay: immunofluorescence staining of YAP subcellular localization; format: cell-based, human
Description: HEK293A or MCF10A cells were seeded on coverslips. After treatment, cells were fixed with 4% paraformaldehyde-PBS for 15 min and permeabilized with 0.1% Triton X-100 in TBS. After blocking in 3% FBS in PBS for 30 min, cells were incubated with primary antibodies overnight at 4° C. After three washes with PBS, cells were incubated with Alexa Fluor 488- or 555-conjugated secondary antibodies (Invitrogen, 1:1000 dilution) for 2 h at room temperature. Slides were then washed three times and mounted. Immunofluorescence was detected using Olympus confocal microscopy. Primary antibodies used were: YAP (H-125) and YAP (63.7) from Santa Cruz, HA from Covance, β-catenin from BD biosciences. Phalloidin alexa 488 was used to stain actin filaments. For paraffin-embedded tissues from control or LPA receptor transgenic mammary glands, 5 μm sections were prepared and subjected for immunostaining Following deparaffinization and hydration, slides were heated in sub-boiling buffer (10 mM sodium citrate, pH 6.0) for 15 min for antigen retrieval. TAZ antibody (H-70) from Santa Cruz was used to as primary antibody.

[12] = system: CREB; assay: CREB phosphorylation by immunoblotting; format: cell-based, human
Description: (§2) Immunoblotting was performed using standard protocol. Antibodies for pYAP (S127), pYAP(S381/384), pMST1/2, TAZ, pERK, ERK1/2, Lats1, MST1, pAKT (S473), pS6K, S6K were from Cell Signaling, antibodies for YAP (H-125), CTGF, Cyr61, Gq/11, G13 and 14-3-3θ were from Santa Cruz, TEAD1 antibody was from BD biosciences, pTAZ (S89) antibody was in-house raised, GAPDH antibody was a gift from Dr. Yan Luo. The phos-tag reagents were purchased from Wako Chemicals, and gels containing phos-tag were prepared according to manufacture's instructions. YAP proteins can be separated into multiple bands in the presence of phos-tag depending on differential phosphorylation levels, with phosphorylated proteins run migrate slower.
Immunoblotting was performed using standard protocol. Antibodies for pYAP (S127), YAP, TAZ (V386), pCREB, CREB, pMLC2 (S19), pMLC2 (T18/S19), MST1, MST2, and Lats1 were from Cell Signaling Technology. Lats2 antibody was from Bethyl laboratories. HA-HRP, GFP, and MLC2 antibodies were from Santa Cruz biotechnology. Tubulin, HSP90 and Flag-HRP were purchased from Sigma Aldrich. PKA antibody was obtained from BD biosciences. GAPDH antibody was a gift from Dr. Yan Luo. Yki antibody was a gift from Dr. Kenneth Irvine. The phos-tag reagents were purchased from Wako Chemicals, and gels containing phos-tag and MnC12 were prepared according to manufacturer's instructions. […]

[13] = system: Lats1; assay: Lats1 immunoprecipitation kinase assay with GST-YAP substrate; format: cell-based, human
Description: Cells were lysed using mild lysis buffer (50 mM HEPES at pH 7.5, 150 mM NaCl, 1 mM EDTA, 1% NP-40, 10 mM pyrophosphate, 10 mM glycerophosphate, 50 mM NaF, 1.5 mM Na3VO4, protease inhibitor cocktail [Roche], 1 mM PMSF). Cell lysates were cleared and used for immunoprecipitation. Lats1 antibody (Cell Signaling Technology) was mixed with cell lysates for 1 hr at 4° C., and then protein A agarose beads were added in for 1 hr. After four washes with lysis buffer, beads were washed once with wash buffer (40 mM HEPES, 200 mM NaCl) and once with kinase assay buffer (30 mM HEPES, 50 mM potassium acetate, 5 mM MgCl2). The immunoprecipitated Lats1 was then subjected to a kinase assay in the presence of 500 μM cold ATP, 10 μCi [γ-32P] ATP, and 1 μg of GST-YAP expressed and purified from Escherichia coli as substrate. The reaction mixtures were incubated for 30 min at 30° C., terminated with SDS sample buffer, and subjected to SDS-PAGE and immunoblotting.

[14] = system: YAP; conditions: mouse, in vivo, ip
Description: A protocol for epinephrine intraperitoneal (IP) injection in mice was approved by UCSD Institutional Animal Care and Use Committee. Fed male mice at 12 weeks of age were anesthetized. Control animals received an IP injection of propranolol (4 mg/100 g body weight) for 15 min. The test animals IP injected with epinephrine (75 μg/100 g body weight) for 15 min. […] The mice were sacrificed rapidly by cervical dislocation and the heart was harvested and immediately frozen in liquid nitrogen. Samples were stored at −80° C. until use. Frozen tissues were pulverized in liquid nitrogen. All of the subsequent steps were performed at 4° C. Powdered tissue samples were homogenized in 10 volumes (weight/volume) of buffer containing 50 mM Tris-HCl pH 7.6, 10 mM EDTA, 2 mM EGTA, 100 mM NaF, Protease inhibitor cocktail (1 mM Pefabloc, 1 mM benzamidine HCl, 1 μM leupeptin, and 1 μM E64), 1 mM PMSF, 0.2% Tritonx 100, 1 mM Na3VO4, 20 mM beta-glycerophosphate, 1 mM sodium pyrophosphate, and 50 nM calyculin A, using a tissue tearor. Homogenates were then centrifuged at 3,800 g for 10 min twice, and approximately 10 μg of protein, determined by Bradford, of the resultant supernatants were used for Western blot analysis.

[15] = system: YAP/TAZ; assay: immunoblotting / phos-tag gels of YAP/TAZ phosphorylation in cultured cell lines; format: cell-based, human
Description: Immunoblotting was performed using standard protocol. […] The phos-tag reagents were purchased from Wako Chemicals, and gels containing phos-tag were prepared according to manufacture's instructions. YAP proteins can be separated into multiple bands in the presence of phos-tag depending on differential phosphorylation levels, with phosphorylated proteins run migrate slower.
Immunoblotting was performed using standard protocol. Antibodies for pYAP (S127), YAP, TAZ (V386), pCREB, CREB, pMLC2 (S19), pMLC2 (T18/S19), MST1, MST2, and Lats1 were from Cell Signaling Technology. Lats2 antibody was from Bethyl laboratories. HA-HRP, GFP, and MLC2 antibodies were from Santa Cruz biotechnology. Tubulin, HSP90 and Flag-HRP were purchased from Sigma Aldrich. PKA antibody was obtained from BD biosciences. GAPDH antibody was a gift from Dr. Yan Luo. Yki antibody was a gift from Dr. Kenneth Irvine. The phos-tag reagents were purchased from Wako Chemicals, and gels containing phos-tag and MnC12 were prepared according to manufacturer's instructions. YAP proteins can be separated into multiple bands on phos-tag gels, with the phosphorylated form of YAP proteins migrating at a slower speed.

[16] = system: YAP; assay: YAP immunoprecipitation with TEAD1 and 14-3-3; format: cell-based, human; conditions: HEK293A
Description: (§3) Cells were lysed using mild lysis buffer (50 mM HEPES at pH 7.5, 150 mM NaCl, 1 mM EDTA, 1% NP-40, 10 mM pyrophosphate, 10 mM glycerophosphate, 50 mM NaF, 1.5 mM Na3VO4, protease inhibitor cocktail [Roche], 1 mM PMSF). Cell lysates were centrifuged for 10 min at 4° C., and supernatants were used for immunoprecipitation. YAP (Bethyl Laboratories) antibody was mixed with the supernatant for 1 h, and protein A-agarose beads were added in for 1 h. Immunoprecipitates were washed four times with lysis buffer, and proteins were eluted with SDS-PAGE sample buffer. For kinase assay, MST1, Lats1 or HA-Lats2 was immunoprecipitated similarly using MST1, Lats1 (Cell Signaling) or HA (Covance) antibodies.

[17] = system: HEK293A cells; assay: cell proliferation assay, HEK293A; format: cell-based, human; conditions: 10 μM LPA, replenished every day
Description: HEK293A cells (expressing control shRNA or YAP/TAZ shRNA, 2×10^5) in serum-free media were maintained in the presence or absence of 10 μM LPA for 1, 2 or 3 day. Cell numbers were determined daily using a cell counter (Bio-Rad). LPA was replenished every day.

[18] = system: Mst1/2; assay: Mst kinase activity and phosphorylation in treated cells; format: cell-based, human
Description: Following immunoprecipitation, protein beads were washed once with wash buffer (40 mM HEPES, 200 mM NaCl) and once with kinase assay buffer (30 mM HEPES, 50 mM potassium acetate, 5 mM MgCl2). The immunoprecipitated Mst1 was subjected to a kinase assay in the presence of 500 μM cold ATP, 10 μCi [γ-^32P] ATP, and 1 μg of GST-Mob expressed and purified from Escherichia coli as substrate. The reaction mixtures were incubated for 30 min at 30° C., terminated with SDS sample buffer, and subjected to SDS-PAGE and autoradiography. Lats1 or HA-Lats2 kinase assays were performed similarly but using GST-YAP as substrates in the absence of [γ-^32P] ATP. The phosphorylation of GST-YAP at S127 was determined by immunoblotting using pYAP antibody.

[19] = system: Lats1; assay: Lats1 phosphorylation (S909, T1079) by immunoblotting; format: cell-based, human; conditions: HEK293A; LPA 1 μM, 1 h
Description: as §3
Immunoblotting was performed using standard protocol. Antibodies for pYAP (S127), pYAP(S381/384), pMST1/2, TAZ, pERK, ERK1/2, Lats1, MST1, pAKT (S473), pS6K, S6K were from Cell Signaling, antibodies for YAP (H-125), CTGF, Cyr61, Gq/11, G13 and 14-3-3θ were from Santa Cruz, TEAD1 antibody was from BD biosciences, pTAZ (S89) antibody was in-house raised, GAPDH antibody was a gift from Dr. Yan Luo. The phos-tag reagents were purchased from Wako Chemicals, and gels containing phos-tag were prepared according to manufacture's instructions. […]

[20] = system: CTGF; assay: expression of YAP/TAZ target gene CTGF; format: cell-based, human; conditions: HEK293A
Description: as §2
Following various treatments, cells were washed with cold phosphate-buffered saline and subjected to RNA extraction using an RNeasy Plus mini kit (Qiagen). […] Complementary DNA was then diluted and used for quantification (with β-actin gene as a control) by real-time PCR, which was performed using KAPA SYBR FAST qPCR master mix (Kapa Biosystems) and the 7300 real-time PCR system (Applied Biosystems). […]
RNA extraction, reverse transcription and real-time PCR. […] After dilution, cDNA levels were quantified by real-time PCR using KAPA SYBR FAST qPCR master mix (Kapa Biosystems) and the 7300 real-time PCR system (Applied Biosystems). […]

O=S(=O)(c1ccc2c(c1)C(=NO)c1cc(S(=O)(=O)N3CCCCC3)ccc1-2)N1CCCCC1 [C108, 2,7-bis(piperidin-1-yl-sulfonyl)-9H-fluoren-9-one oxime]
migration of M14 [1]: suppressed | total body weight ([2]; 100 mg/kg daily via tail-vein injection, three weeks): not affected | growth of M14 xenograft tumors ([2]; 100 mg/kg daily via tail-vein injection, three weeks, nude mice): significantly inhibited | apoptotic marker cleaved PARP in tumors (Western blot) ([2]; M14 tumors from treated mice): dramatic increase | level of YAP in tumor tissues (Western blot) ([2]; M14 tumors from treated mice): lower level | Hematoxylin and Eosin stain of tumor sections ([2]; melanoma xenografts): sparser and have lower nuclear to cytoplasimc ratio | endogenous YAP ubiquitination [3]: dramatically increased | growth of EKVX xenograft tumors [4]: significantly inhibited | migration of SK-Mel-28 melanoma [5]: suppressed | YAP mRNA levels [6]: no noticeable changes | M14 Melanoma cell proliferation [7]: inhibitory effect | YAP protein in the presence of cycloheximide ([8]; 10 μM C108, 12 hrs): rapidly diminished | YAP protein levels ([8]; BOCS cells, 16 hours of treatment): dramatic decrease | concentration at which endogenous YAP protein was significantly reduced ([8]; BOCs 293 cells, 12 and 24 hr of drug exposure): 2 to 3 µM | YAP protein levels ([8]; SF268 glioma, M14 melanoma and SK-Mel-28 melanoma): decreased | migration of EKVX adenocarcinoma [9]: suppressed | cell migration in wound-healing assay [10]: strongly inhibited

CNC[C@H](O)c1ccc(O)c(O)c1 [epinephrine]
YAP localization (immunofluorescence) [11]: accumulation of cytoplasmic YAP | phosphorylation of CREB [12]: increased | phosphorylation of CREB, time course [12]: transient induction | Lats1 activity [13]: increased | YAP phosphorylation in heart [14]: significantly increased | YAP phosphorylation (Ser127, phos-tag), time course [15]: transiently increased | mutual effect of epinephrine and LPA on YAP phosphorylation [15]: antagonized each other's effect | phosphorylation of YAP [15]: dose-dependent phosphorylation

lysophosphatidic acid [LPA]
YAP nuclear localization ([11]; HEK293A and MCF10A, 1 μM, 1 h): induced YAP nuclear localization | time after LPA withdrawal at which YAP redistributed into cytoplasm ([11]; MCF10A): 30 min | YAP-14-3-3 interaction [16]: attenuated | interaction between YAP and TEAD1 [16]: enhanced | cell proliferation in serum free medium [17]: strongly induced cell proliferation | phosphorylation of MST2 at T180 ([18]; HEK293A with Flag-MST2, LPA 0.2 or 1 μM, 1 h): not changed | Mst1 kinase activity ([18]; HEK293A, FBS 1% or LPA 1 μM, GST-Mob substrate): no detectable effect | Lats1 kinase activity ([13]; HEK293A, serum or LPA): rapidly inhibited | phosphorylation of Lats1 at S909 and T1079 [19]: decreased | expression of CTGF [20]: induced | phosphorylation of YAP S381/384 ([15]; HEK293A transfected with GFP-YAP, LPA 1 h): decreased | YAP/TAZ dephosphorylation, time course ([15]; HEK293A, 1 μM for indicated times): rapid YAP/TAZ dephosphorylation | dephosphorylation of YAP/TAZ by phospholipids ([15]; HEK293A, 100 μM lipid): strongly induced dephosphorylation | concentration inducing complete YAP/TAZ dephosphorylation ([15]; HEK293A, 1 h): 0.1 µM | concentration inducing partial YAP/TAZ dephosphorylation ([15]; HEK293A, 1 h): 0.01 µM | YAP dephosphorylation, different doses ([15]; HEK293A, different doses of LPA, S1P, LPC or PA for 1 h): potently induced | mutual effect of epinephrine and LPA on YAP phosphorylation ([15]; serum-starved U2OS, LPA, epinephrine or both, 1 h): antagonized each other's effect
